The source of these data is patent US12076409B2, “Polymer-drug conjugates for combination anticancer therapy” (priority 2015, dated 2024).

The subject of experiment [1] is human breast cancer cell line BT-474. The experiment in a line: MTT cell viability and drug combination studies in BT-474 cells. The settings on record: BT-474, 72 hours, read-out: D50 (concentration of drug required to inhibit 50% cell growth). The experiment is classed as cell-based. The procedure:
BT-474 or bEnd.3 cells were seeded in a 96-well cell culture plate at a density of 10,000 cells per well in a total volume of 100 μL/well and allowed to adhere overnight. Media was then replaced with fresh media containing drug(s). Drugs were first dissolved in DMSO, and then further diluted in full cell culture medium so as not to expose cells to more than 0.5 vol % DMSO. BT-474 cells were incubated with drug solutions for 72 hours, while bEnd.3 cells were exposed to drug solutions for 48 hours. […] To assess cell viability, the media was replaced with 0.5 mg/mL MTT in media and allowed to incubate for 4 hours. […] Formazan dye intensity was determined by absorbance measured at 570 nm in a Tecan Infinite M200 Pro plate reader (Männedorf, Switzerland). The fraction of inhibited cell growth was calculated by subtracting live cells in experimental wells from untreated control cells and normalizing against control cells. D50 refers to the concentration of drug required to inhibit 50% cell growth. Experimental cytotoxicity data were fitted to the median-effect model developed by Chou and Talalay to obtain in vitro cytotoxicity curves for each drug.

In experiment [2] the test system is BT-474 cells. The experiment in a line: Annexin V/Sytox Green apoptosis assay (flow cytometry). The note with it: BT-474, 72 hours, single drug. In kind it is cell-based, human. The procedure: Apoptosis assessment was made based on Annexin V and Sytox Green counterstaining. Studies followed the Life Technologies Apoptosis Assay protocol, with few modifications tailored to BT-474 cells. Briefly, cells were seeded at a concentration of 100×10^4 cells per 25 cm^2 cell culture flask in a total volume of 10 mL media, and allowed to adhere overnight. Media was then decanted and replaced with fresh media containing drug(s). Drugs were first dissolved in DMSO and further diluted in media such that cells were not exposed to more than 0.2 vol % DMSO. Cells were incubated in the presence of drug(s) for 72 hours. After drug exposure, cells were harvested at a concentration of 1×10^6 cells/mL in Annexin V binding buffer, and 200 μL of each sample were incubated with 5 μL of Annexin V-647 and 1 μL of 1 μM Sytox Green. After 15 minutes of dye incubation, cells were diluted 5× in ice cold Annexin V Binding Buffer, and immediately analyzed via flow cytometry in a Becton Dickinson FACSAria cell sorter (Franklin Lakes, NJ, USA). To quantify Annexin V-647 and Sytox Green fluorescence, a 633 nm laser with 660 PMT and a 488 nm laser with 530 PMT, respectively, were utilized. […]
Scatter plots obtained from flow cytometry of AnnexinV/Sytox Green counterstained cells were analyzed. These plots were utilized to quantify early apoptotic and late apoptotic/necrotic populations in FIG. 2. […]

Experiment [3] concerns BT-474 cells. The experiment in a line: Internalization studies by confocal laser scanning microscopy. The experiment is classed as cell-based, human. The settings on record: BT-474, 24 hrs. The procedure:
To assess the effect of HA-conjugation on the internalization of CPT or DOX in BT-474 cells, confocal laser scanning microscopy was utilized. Cells were seeded at a density of 80,000 cells per 300 μL media in an 8-well chambered borosilicate coverglass (Nunc Lab-Tek), and were allowed to adhere overnight. Cells were exposed to the same drug concentration, the free drug D50, of either the free drug solution or the HA-conjugate form for 24 hrs at 37° C. and 5% CO2. Post-drug incubation, cells were washed twice with warmed PBS (pH 7.4), followed by staining with nuclear dyes at 37° C., 5% CO2. In the case of DOX-exposed cells, Hoechst nuclear dye was utilized at a concentration of 25 μg/mL for 30 minutes. For CPT-exposed cells, to avoid overlap fluorescence between CPT and nuclear marker, DRAQ5 was used to stain nuclei at a concentration of 5 μM in media for 60 minutes. Cells were washed twice more in warm PBS and finally suspended in media immediately prior to imaging. All cells were imaged live with an Olympus Fluoview 1000 spectral confocal equipped with a 60× silicon oil objective and a 37° C. temperature-controlled imaging chamber. […] Z-stacks of 10 μm were captured and subsequently analyzed with ImageJ 1.47h software (NIH). Each z-stack was collapsed into an averaged image, and fluorescence intensity was reported as the raw integrated density divided by number of cells. […]

In the next experiment the test system is small cell lung cancer. The settings on record: patients with small cell lung cancer; cited from earlier work.

In the case of `CC[C@@]1(O)C(=O)OCc2c1cc1n(c2=O)Cc2cc3ccccc3nc2-1` [CPT, Camptothecin], the IC50 in experiment [1] came out at 100 µM. Further, the “percentage of apoptotic cells” value in the experiment with BT-474 cells [2] was “low percentages of apoptotic cells”.

As for `COc1cccc2c1C(=O)c1c(O)c3c(c(O)c1C2=O)C[C@@](O)(C(=O)CO)C[C@@H]3O[C@H]1C[C@H](N)[C@H](O)[C@H](C)O1` [DOX, Doxorubicin], the intracellular distribution result in the experiment with BT-474 cells [3] was “more diffuse and co-localized with cell nuclei”. For the same compound, the overall response rate in the experiment on small cell lung cancer was over 20%.
